We go through 8 compounds from ChEMBL document CHEMBL1201862, “PubChem BioAssay data set” (2004).

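Cultured in 96-well plates, cells were exposed to test compound for 48 hours across five concentrations. The concentration for 50% growth inhibition is given as GI50.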 Activity calls are given as the source filed them. No stated cut-off is given here; in the data, active = GI50 up to about 1.1 µM and inactive = higher.

Assay in all cases: DTP human tumour cell line panel, 48 h
Assay [1] has as its system COLO 205.
For assay [2], the system named is HCT-116.
The subject of assay [3] is HL-60.
Assay [4] has as its system K562.
Assay [5] relates to Malme-3M.
For assay [6], the system named is NCI-H226.
Assay [7] concerns NCI-H460.
Assay [8] concerns NCI-H522.
In assay [9] the test system is OVCAR-5.
In assay [10] the test system is PC-3.
In assay [11] the test system is SF-295.
Assay [12] concerns SF-539.
The subject of assay [13] is SK-MEL-2.
Assay [14] has as its system SN12C.
For assay [15], the system named is SNB-19.
Assay [16] concerns SW-620.
The subject of assay [17] is U-251.
The test system of assay [18] is UACC-257.
The test system of assay [19] is UO-31.
For assay [20], the system named is MCF7.

Turning to `N#Cc1c(N2CCCC2)nsc1Nc1ccc(F)cc1`, the GI50 in assay [1], in assay [2], in assay [3], in assay [4], in assay [5] and in assay [6] was > 100 µM (inactive) in each case. The GI50 in assay [7] is > 100 µM (inactive); in assay [8], 57.9 µM (inactive); in assay [9] it was > 100 µM (inactive); in assay [10] it was > 100 µM (inactive); in assay [11] it was > 100 µM (inactive); in [12], > 100 µM (inactive). The GI50 in [13], in assay [14], in [15], in [16], in assay [17] and in assay [18] was > 100 µM (inactive) each time. Further, in [19], the GI50 was > 10 µM (inactive).
For the compound `CN(C(=O)C12C3C4C1C1C2C3C41C(O)C(C)(C)C)C(C)(C)C` (stereo unspecified), the GI50 in assay [1], in assay [2], in assay [3], in assay [4], in assay [5] and in [6] was > 100 µM (inactive) in each case. Besides, the GI50 in assay [7] was > 100 µM (inactive); in [8], 58.2 µM (inactive); in [9] it was > 100 µM (inactive); in assay [11], > 100 µM (inactive); in assay [12] it was > 100 µM (inactive); in [13] it was > 100 µM (inactive). The GI50 in [14], in assay [15], in assay [16], in assay [17], in [18] and in assay [19] was > 100 µM (inactive) throughout.
Consider `N=C(N)NCCN1CC2CCC(CC2)C1`, for which the GI50 in assay [1] is 93.1 µM (inactive); in assay [2] it was > 100 µM (inactive); in assay [5] it was > 100 µM (inactive); in assay [6], 80.4 µM (inactive); in assay [7] it was > 100 µM (inactive); in assay [8] it was > 100 µM (inactive). The GI50 in assay [9] was > 100 µM (inactive); in assay [10], 44.1 µM (inactive); in [11], > 100 µM (inactive); in assay [12] it was > 100 µM (inactive); in [13] it was > 100 µM (inactive); in assay [14], > 100 µM (inactive). The GI50 in assay [15], in assay [16], in assay [17], in assay [18] and in assay [19] was > 100 µM (inactive) each time.
`CC(C)c1nc(Cl)nc(Cl)c1Cl`: the GI50 in assay [1] was 0.239 µM (active); in assay [2], 0.0344 µM (active); in assay [3], 0.0125 µM (active); in assay [4], < 0.01 µM (active); in assay [5], 0.304 µM (active); in assay [6], 2.27 µM (inactive). In addition, the GI50 in assay [7] was 1.29 µM (inactive); in [8], 0.303 µM (active); in [9], 0.414 µM (active); in [10], 0.401 µM (active); in assay [11], 2.82 µM (inactive); in [12] it was 0.515 µM (active). The GI50 was 0.239 µM (active) in assay [13]; 0.482 µM (active) in assay [14]; 0.847 µM (active) in assay [15]; < 0.0233 µM (active) in [16]; 0.61 µM (active) in assay [17]; 0.256 µM (active) in assay [18]. The 50% growth inhibitory concentration (GI50) in assay [19] was 0.0711 µM (active).
Regarding `Cc1cc2c(-c3ccccc3)cc(=O)[nH]c2cc1N`, the GI50 in assay [1], in assay [2], in assay [4], in assay [20], in assay [6] and in assay [7] was > 100 µM (inactive) throughout. Moreover, the GI50 in assay [9], in [10], in assay [11], in assay [12], in [13] and in assay [14] was > 100 µM (inactive) each time. Besides, the GI50 in assay [15], in assay [16], in assay [17], in assay [18] and in assay [19] was > 100 µM (inactive) throughout.
On to `COCc1nc2c(OC)c(-c3nc4ccc(N5CCN(C)CC5)nc4[nH]3)cc(OC)c2n1C`, for which the GI50 in [1] is 8.59 µM (inactive); in [2] it was 41.3 µM (inactive); in assay [3], 17.4 µM (inactive); in [4], 29.3 µM (inactive); in assay [5], 19.4 µM (inactive); in [6] it was 22.4 µM (inactive). Further, the GI50 in assay [7] is 26.4 µM (inactive); in assay [8] it was 27.4 µM (inactive); in assay [9], 44.2 µM (inactive); in assay [10] it was 21.2 µM (inactive); in assay [11], 32.1 µM (inactive); in [12], 12.3 µM (inactive). Moreover, the GI50 in assay [13] is 22 µM (inactive); in [14] it was 80 µM (inactive); in assay [15] it was 35.4 µM (inactive); in assay [16], 28.6 µM (inactive); in [17] it was 21.7 µM (inactive); in assay [18] it was 17.9 µM (inactive). The GI50 in [19] is 22 µM (inactive).
For the compound `CC1(C)O[C@@H]([C@H](O)CO)[C@H](O)[C@@H](C2SCCCS2)O1`, the GI50 in [1], in [2], in assay [20], in assay [6], in assay [7] and in assay [9] was > 100 µM (inactive) throughout. Moreover, the GI50 in assay [10], in [11], in assay [12], in assay [13], in [14] and in assay [15] was > 100 µM (inactive) each time. Further, the GI50 in assay [16], in [17], in [18] and in assay [19] was > 100 µM (inactive) throughout.
As for `CC(=O)Nc1ccc(/N=N\c2c(O)c(S(=O)(=O)O)cc3cc(S(=O)(=O)O)ccc23)cc1`, the GI50 in assay [1], in assay [2], in [4], in assay [5], in assay [6] and in assay [8] was > 100 µM (inactive) throughout. For the same compound, the GI50 in assay [9], in assay [10], in [11], in [13], in assay [14] and in [15] was > 100 µM (inactive) each time. The GI50 in assay [16], in assay [17], in assay [18] and in [19] was > 100 µM (inactive) throughout.

One may read the GI50 as the concentration giving 50% growth inhibition.
